According to patent publication US12077503B2, “Substituted cyclic amides and their use as herbicides” (FMC CORPORATION, priority 2015, dated 2024):

Legend:
Assay in all cases: Test E preemergence
Type in all cases: in vivo
Details in all cases: scale 0 to 100
[1] = system: Panicum, fall (fall Panicum, Panicum dichotomiflorum)
Summary of the method: (§1)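 Seeds sown in silt loam treated preemergence, or plants 2 to 18 cm tall in peat-based potting medium treated postemergence, with test chemical in a non-phytotoxic solvent mixture containing surfactant. Kept in greenhouse 14 to 21 d, then visually rated against controls on a 0–100 scale (0 no effect, 100 complete control).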

[2] = system: barnyardgrass (Echinochloa crus-galli)
Summary of the method: as §1

corn (Zea mays) = system: corn (Zea mays)
Summary of the method: as §1

[3] = system: crabgrass, Brazil (Brazilian crabgrass, Digitaria horizontalis)
Summary of the method: as §1

[4] = system: crabgrass, large (large crabgrass, Digitaria sangumnalis)
Summary of the method: as §1

[5] = system: field bindweed (Convolvulus arvensis)
Summary of the method: as §1

[6] = system: foxtail, giant (giant foxtail, Setaria faberii)
Summary of the method: as §1

[7] = system: foxtail, green (green foxtail, Setaria viridis)
Summary of the method: as §1

[8] = system: goosegrass (Eleusine indica)
Summary of the method: as §1

[9] = system: horseweed (Conyza canadensis)
Summary of the method: as §1

[10] = system: johnsongrass (Sorghum halepense)
Summary of the method: as §1

[11] = system: lambsquarters (Chenopodium album)
Summary of the method: as §1

[12] = system: nightshade (eastern black nightshade, Solanum ptycanthum)
Summary of the method: as §1

[13] = system: nutsedge, yellow (yellow nutsedge, Cyperus esculentus)
Summary of the method: as §1

[14] = system: pigweed, palmer (palmer pigweed, Amaranthus palmeri)
Summary of the method: as §1

[15] = system: ragweed (common ragweed, Ambrosia elatior)
Summary of the method: as §1

[16] = system: sandbur (southern sandbur, Cenchrus echinatus)
Summary of the method: as §1

soybean (Glycine max) = system: soybean (Glycine max)
Summary of the method: as §1

[17] = system: surinam grass (Brachiaria decumbens)
Summary of the method: as §1

[18] = system: velvetleaf (Abutilon theophrasti)
Summary of the method: as §1

[19] = system: waterhemp (common waterhemp, Amaranthus rudis)
Summary of the method: as §1

SMILES: CN1CC(c2ccc(C(F)(F)F)cc2)C(C(=O)Nc2ccccc2S(C)(=O)=O)C1=O (stereo not shown) [Compound 624]
- Plant response rating: Panicum, Fall ([1]; 31 g ai/ha): 0
- Plant response rating: Panicum, Fall ([1]; 62 g ai/ha): 0
- Plant response rating: Panicum, Fall ([1]; 125 g ai/ha): 30
- Plant response rating: Panicum, Fall ([1]; 250 g ai/ha): 60
- Plant response rating: Barnyardgrass ([2]; 31 g ai/ha): 0
- Plant response rating: Barnyardgrass ([2]; 62 g ai/ha): 30
- Plant response rating: Barnyardgrass ([2]; 125 g ai/ha): 50
- Plant response rating: Barnyardgrass ([2]; 250 g ai/ha): 65
- Plant response rating: Corn (corn (Zea mays); 31 g ai/ha): 0
- Plant response rating: Corn (corn (Zea mays); 62 g ai/ha): 0
- Plant response rating: Corn (corn (Zea mays); 125 g ai/ha): 10
- Plant response rating: Corn (corn (Zea mays); 250 g ai/ha): 20
- Plant response rating: Crabgrass, Brazil ([3]; 31 g ai/ha): 80
- Plant response rating: Crabgrass, Brazil ([3]; 62 g ai/ha): 80
- Plant response rating: Crabgrass, Brazil ([3]; 125 g ai/ha): 95
- Plant response rating: Crabgrass, Brazil ([3]; 250 g ai/ha): 100
- Plant response rating: Crabgrass, Large ([4]; 31 g ai/ha): 30
- Plant response rating: Crabgrass, Large ([4]; 62 g ai/ha): 85
- Plant response rating: Crabgrass, Large ([4]; 125 g ai/ha): 80
- Plant response rating: Crabgrass, Large ([4]; 250 g ai/ha): 90
- Plant response rating: Field Bindweed ([5]; 31 g ai/ha): 0
- Plant response rating: Field Bindweed ([5]; 62 g ai/ha): 10
- Plant response rating: Field Bindweed ([5]; 125 g ai/ha): 5
- Plant response rating: Field Bindweed ([5]; 250 g ai/ha): 10
- Plant response rating: Foxtail, Giant ([6]; 31 g ai/ha): 20
- Plant response rating: Foxtail, Giant ([6]; 62 g ai/ha): 50
- Plant response rating: Foxtail, Giant ([6]; 125 g ai/ha): 70
- Plant response rating: Foxtail, Giant ([6]; 250 g ai/ha): 85
- Plant response rating: Foxtail, Green ([7]; 31 g ai/ha): 20
- Plant response rating: Foxtail, Green ([7]; 62 g ai/ha): 20
- Plant response rating: Foxtail, Green ([7]; 125 g ai/ha): 65
- Plant response rating: Foxtail, Green ([7]; 250 g ai/ha): 75
- Plant response rating: Goosegrass ([8]; 31 g ai/ha): 50
- Plant response rating: Goosegrass ([8]; 62 g ai/ha): 75
- Plant response rating: Goosegrass ([8]; 125 g ai/ha): 80
- Plant response rating: Goosegrass ([8]; 250 g ai/ha): 100
- Plant response rating: Horseweed ([9]; 31 g ai/ha): 30
- Plant response rating: Horseweed ([9]; 62 g ai/ha): 90
- Plant response rating: Horseweed ([9]; 250 g ai/ha): 85
- Plant response rating: Johnsongrass ([10]; 31 g ai/ha): 0
- Plant response rating: Johnsongrass ([10]; 62 g ai/ha): 0
- Plant response rating: Johnsongrass ([10]; 125 g ai/ha): 35
- Plant response rating: Lambsquarters ([11]; 31 g ai/ha): 0
- Plant response rating: Lambsquarters ([11]; 62 g ai/ha): 0
- Plant response rating: Lambsquarters ([11]; 125 g ai/ha): 50
- Plant response rating: Lambsquarters ([11]; 250 g ai/ha): 85
- Plant response rating: Nightshade ([12]; 31 g ai/ha): 70
- Plant response rating: Nightshade ([12]; 62 g ai/ha): 75
- Plant response rating: Nightshade ([12]; 125 g ai/ha): 80
- Plant response rating: Nightshade ([12]; 250 g ai/ha): 80
- Plant response rating: Nutsedge, Yellow ([13]; 31 g ai/ha): 0
- Plant response rating: Nutsedge, Yellow ([13]; 62 g ai/ha): 0
- Plant response rating: Nutsedge, Yellow ([13]; 125 g ai/ha): 0
- Plant response rating: Nutsedge, Yellow ([13]; 250 g ai/ha): 10
- Plant response rating: Pigweed, Palmer ([14]; 31 g ai/ha): 0
- Plant response rating: Pigweed, Palmer ([14]; 62 g ai/ha): 25
- Plant response rating: Pigweed, Palmer ([14]; 125 g ai/ha): 20
- Plant response rating: Pigweed, Palmer ([14]; 250 g ai/ha): 30
- Plant response rating: Ragweed ([15]; 31 g ai/ha): 20
- Plant response rating: Ragweed ([15]; 62 g ai/ha): 20
- Plant response rating: Ragweed ([15]; 125 g ai/ha): 30
- Plant response rating: Ragweed ([15]; 250 g ai/ha): 30
- Plant response rating: Sandbur ([16]; 31 g ai/ha): 10
- Plant response rating: Sandbur ([16]; 62 g ai/ha): 30
- Plant response rating: Sandbur ([16]; 125 g ai/ha): 50
- Plant response rating: Sandbur ([16]; 250 g ai/ha): 50
- Plant response rating: Soybean (soybean (Glycine max); 31 g ai/ha): 0
- Plant response rating: Soybean (soybean (Glycine max); 62 g ai/ha): 10
- Plant response rating: Soybean (soybean (Glycine max); 125 g ai/ha): 20
- Plant response rating: Soybean (soybean (Glycine max); 250 g ai/ha): 10
- Plant response rating: Surinam Grass ([17]; 31 g ai/ha): 20
- Plant response rating: Surinam Grass ([17]; 62 g ai/ha): 30
- Plant response rating: Surinam Grass ([17]; 125 g ai/ha): 40
- Plant response rating: Surinam Grass ([17]; 250 g ai/ha): 70
- Plant response rating: Velvetleaf ([18]; 31 g ai/ha): 0
- Plant response rating: Velvetleaf ([18]; 62 g ai/ha): 0
- Plant response rating: Velvetleaf ([18]; 125 g ai/ha): 10
- Plant response rating: Velvetleaf ([18]; 250 g ai/ha): 20
- Plant response rating: Waterhemp ([19]; 31 g ai/ha): 50
- Plant response rating: Waterhemp ([19]; 62 g ai/ha): 60
- Plant response rating: Waterhemp ([19]; 125 g ai/ha): 75
- Plant response rating: Waterhemp ([19]; 250 g ai/ha): 70
